Reference: patent US20070161696A1, “Methods of using and compositions comprising selective cytokine inhibitory drugs for treatment, modification and management of pain” (priority 2004, published 2007)

Legend:
[1] = Cardiovascular and respiratory function in anesthetized dogs; format: in vivo; conditions: anesthetized Beagle dogs; ascending doses 400, 800 and 1,200 mg/kg/day by infusion through the jugular vein; compared to vehicle control group
Procedure: The effects of 3-(3,4-dimethoxy-phenyl)-3-(1-oxo-1,3-dihydro-isoindol-2-yl)-propionamide on cardiovascular and respiratory function are investigated in anesthetized dogs. Two groups of Beagle dogs (2/sex/group) are used. One group receives three doses of vehicle only and the other receives three ascending doses of 3-(3,4-dimethoxy-phenyl)-3-(1-oxo-1,3-dihydro-isoindol-2-yl)-propionamide (400, 800, and 1,200 mg/kg/day). In all cases, doses of 3-(3,4-dimethoxy-phenyl)-3-(1-oxo-1,3-dihydro-isoindol-2-yl)-propionamide or vehicle are successively administered via infusion through the jugular vein separated by intervals of at least 30 minutes.
The cardiovascular and respiratory changes induced by 3-(3,4-dimethoxy-phenyl)-3-(1-oxo-1,3-dihydro-isoindol-2-yl)-propionamide are minimal at all doses when compared to the vehicle control group. 5.3 Studies Using Animal Pain Models

[2] = Clinical study in pain patients with upper extremity CRPS; format: in vivo, human; conditions: 1,200 mg as a continuous oral daily dose
Procedure: Selective cytokine inhibitory drugs of the invention such as 3-(3,4-dimethoxy-phenyl)-3-(1-oxo-1,3-dihydro-isoindol-2-yl)-propionamide are administered in an amount of 400 to 1,200 mg per day to patients with pain syndromes for three to six months. A baseline evaluation is performed for the effect of the drug treatment on pain intensity, impact of pain on activities of daily living, and consumption of other pain medications.
In a specific embodiment, clinical studies are performed in pain patients who have upper extremity CRPS that has not responded to conventional physical therapy and has been present for at least one year. In the early course of their diseases, patients have clear evidence of autonomic dysfunction with formal autonomic testing (Quantitative sudomotor axon reflex test (QSART), resting sweat output, and thermography). If this is unavailable, documentation of clinical signs indicates autonomic dysfunction (changes in hydration, temperature, skin, nail or hair growth) along with symptoms of allodynia and swelling. […] Responses are assessed using standard pain scales, e.g., Numeric Pain Scale Assessment (VAS) for pain, quality of life using the McGill Index and objective signs in clinical examination such as a visible reduction of swelling, sweating, discolorations in skin color, temperature changes, changes in skin, hair and nail growth, and fine motor movements. […]

TNF-α production = assay: Inhibition of TNF-α production following LPS-stimulation of human PBMC and human whole blood, in vitro; format: cell-based; conditions: in vitro studies; compared with thalidomide
Procedure: In a specific embodiment, the pharmacological properties of 3-(3,4-dimethoxy-phenyl)-3-(1-oxo-1,3-dihydro-isoindol-2-yl)-propionamide are characterized in in vitro studies. Studies examine the effects of the compound on the production of various cytokines. Inhibition of TNF-α production following LPS-stimulation of human PBMC and human whole blood by the compound is investigated in vitro. The IC50's of the compound for inhibiting production of TNF-α are measured. […] The pharmacological effects of 3-(3,4-dimethoxy-phenyl)-3-(1-oxo-1,3-dihydro-isoindol-2-yl)-propionamide may derive from its action as an inhibitor of the generation of inflammatory cytokines.

## COc1ccc(C(CC(N)=O)N2Cc3ccccc3C2=O)cc1OC (stereo not drawn) [3-(3,4-Dimethoxy-phenyl)-3-(1-oxo-1,3-dihydro-isoindol-2-yl)-propionamide]
[1]
  cardiovascular and respiratory changes: minimal
[2]
  tolerability: well-tolerated
TNF-α production
  pharmacological activity profile, potency relative to thalidomide: five to fifty times more potent than thalidomide
